Source: PMC8466554, “Heteroaryl-Ethylenes as New Lead Compounds in the Fight against High Priority Bacterial Strains” (Antibiotics, 2021)
Several values for one entry are separate records, joined by “and”; a condition that tells them apart may be missing. Equal entries are not always repeated. Where two headings read alike, the source gives them in different places. One block for each compound: values may come before it.

Legend:
[1] = system: K. pneumoniae ATCC BAA-2814; test: MIC microtiter plate assay; assay type: cell-based, Klebsiella pneumoniae; details: K. pneumoniae ATCC BAA-2814 (MDR strain)
[2] = system: S.aureus ATCC12598-MSSA; test: MIC and MBC microtiter plate assay, also with different inocula; assay type: cell-based, Staphylococcus aureus
[3] = system: K. pneumoniae ATCC700603; test: MIC microtiter plate assay; assay type: cell-based, Klebsiella pneumoniae
[4] = system: Gram-positive and Gram-negative ATCC strains; test: MIC and MBC, summary over Gram-positive and Gram-negative strains; assay type: cell-based; details: by MBC/MIC ratio
[5] = system: S.aureus Mu50-VISA; test: MIC and MBC microtiter plate assay; assay type: cell-based, Staphylococcus aureus
[6] = system: E. coli ATCC25922; test: MIC and MBC microtiter plate assay, also with different inocula; assay type: cell-based, Escherichia coli
[7] = system: E. faecalis ATCC51299-VRE; test: as above; assay type: cell-based
[8] = system: P. aeruginosa ATCC27853; test: MIC microtiter plate assay; assay type: cell-based, Pseudomonas aeruginosa
[9] = system: E. faecalis ATCC29212-VSE; test: MIC and MBC microtiter plate assay; assay type: cell-based
[10] = system: A. baumannii ATCC17978; test: MIC and MBC microtiter plate assay, also with different inocula; assay type: cell-based, Acinetobacter baumannii; details: A. baumannii ATCC17978
[11] = system: S.aureus USA300-CAMRSA; test: MIC and MBC microtiter plate assay; assay type: cell-based, Staphylococcus aureus
[12] = system: S.aureus ATCC29213-MSSA; test: MIC and MBC microtiter plate assay; assay type: cell-based, Staphylococcus aureus
[13] = system: CaCo-2 cells; test: MTT cytotoxicity assay; assay type: cell-based, human; details: 24 h of incubation relative to untreated controls
Experimental: To evaluate the biological activity of the PBn series, compounds were screened for toxicity against the colon-rectal cancer cell line CaCo-2 (ATCC HTB-37). These human cancer cells were treated with solutions of the compounds at decreasing concentrations, starting from 100 μM up to 0.01 μM. The reference compound used for these assays was 5-Fluorouracil (5-Fu), a pyrimidine analogue belonging to the family of antimetabolite. […] Briefly, human colorectal adenocarcinoma cells (CaCo-2 HTB-37^TM Colorectal Adenocarcinoma Human, American Type Culture Collection, Manassas, VA, USA) were grown in Dulbecco’s MEM (DMEM) with 10% heat-inactivated fetal bovine serum, 2 mM L-Alanyl-L-Glutamine, penicillin-streptomycin (50 units-50 μg for mL) and incubated at 37 °C in a humidified atmosphere of 5% CO2, 95% air. CaCo-2 cells were plated in 96 well pates and incubated at 37 °C. The PBn series compounds and 5-FU were prepared as a 1 mM solution in 10 mL with 0.01% DMSO. Then, 24 h after plating, cells were treated with 20 μL of each solution. Untreated cells were used as controls. […] The results were read on a multiwell scanning spectrophotometer (AF2200 plate reader, Eppendorf, Milan, Italy), using a wavelength of 569 nm.

[14] = system: Gram-positive control strains; test: MIC and MBC, summary over Gram-positive control strains; assay type: cell-based, S. aureus and Enterococcus spp.; details: over the Gram-positive control strains (S. aureus and Enterococcus spp.)
[15] = S. aureus ATCC12598, inoculum 1.00101 (1 × 10^1 CFU/mL)
[16] = S. aureus ATCC12598, inoculum 1.00102 (1 × 10^2 CFU/mL)
[17] = S. aureus ATCC12598, inoculum 1.00103 (1 × 10^3 CFU/mL)
[18] = S. aureus ATCC12598, inoculum 1.00104 (1 × 10^4 CFU/mL)
[19] = S. aureus ATCC12598, inoculum 1.00105 (1 × 10^5 CFU/mL, standard)
[20] = S. aureus ATCC12598, inoculum 1.00106 (1 × 10^6 CFU/mL)
[21] = S. aureus ATCC12598, inoculum 1.00107 (1 × 10^7 CFU/mL)
[22] = S.aureus ATCC12598-MSSA, value in brackets
[23] = E. faecalis ATCC51299-VRE, value in brackets
[24] = E. faecalis ATCC51299, inoculum 1.00101 (1 × 10^1 CFU/mL)
[25] = E. faecalis ATCC51299, inoculum 1.00102 (1 × 10^2 CFU/mL)
[26] = E. faecalis ATCC51299, inoculum 1.00103 (1 × 10^3 CFU/mL)
[27] = E. faecalis ATCC51299, inoculum 1.00104 (1 × 10^4 CFU/mL)
[28] = E. faecalis ATCC51299, inoculum 1.00105 (1 × 10^5 CFU/mL, standard)
[29] = E. faecalis ATCC51299, inoculum 1.00106 (1 × 10^6 CFU/mL)
[30] = E. faecalis ATCC51299, inoculum 1.00107 (1 × 10^7 CFU/mL)

MIC [1]: > 128 mg/L | MIC ([1]; value in brackets): > 236.94 µM | MIC [2, 15]: 0.03 mg/L and 0.06 μM | MIC [2, 16]: 0.03 mg/L and 0.06 μM | MIC [2, 17]: 0.06 μM and 0.03 mg/L | MIC [2, 18]: 0.06 mg/L and 0.12 μM | MIC [2, 19]: 4 mg/L and 7.40 μM | MIC [2, 20]: 4 mg/L and 7.40 μM | MIC [2, 21]: 8 mg/L and 14.81 μM | MIC ([2]; S.aureus ATCC12598-MSSA): 4 mg/L | MIC [2, 22]: 7.40 µM | MIC [3]: > 128 mg/L | MIC ([3]; value in brackets): > 236.94 µM | MIC [5]: 2 mg/L | MIC ([5]; value in brackets): 3.70 µM | MIC [6]: 32 mg/L | MIC ([6]; value in brackets): 59.24 µM | MIC ([7]; E. faecalis ATCC51299-VRE): 4 mg/L | MIC [7, 23]: 7.40 µM | MIC [7, 24]: 0.5 mg/L and 0.93 μM | MIC [7, 25]: 1 mg/L and 1.85 μM | MIC [7, 26]: 1 mg/L and 1.85 μM | MIC [7, 27]: 1 mg/L and 1.85 μM | MIC [7, 28]: 4 mg/L and 7.40 μM | MIC [7, 29]: 4 mg/L and 7.40 μM | MIC [7, 30]: 4 mg/L and 7.40 μM | MIC [8]: > 128 mg/L | MIC ([8]; value in brackets): > 236.94 µM | MIC [9]: 4 mg/L | MIC ([9]; value in brackets): 7.40 µM | MIC [10]: > 128 mg/L | MIC ([10]; value in brackets): > 236.94 µM | MIC ([11]; value in brackets): 0.93 µM | MIC [12]: 1 mg/L | MIC ([12]; value in brackets): 1.85 µM
SMILES: Clc1ccc(Cl)c(-c2ccc(/C=C/c3cc[n+](-c4ncccn4)cc3)o2)c1.F[P-](F)(F)(F)(F)F [PB5]
MBC ([2]; S.aureus ATCC12598-MSSA): 4 mg/L | MBC [2, 22]: 7.40 µM | bactericidal/bacteriostatic activity [4]: strain-dependent bactericidal/bacteriostatic activity | MBC [5]: 4 mg/L | MBC ([5]; value in brackets): 7.40 µM | MBC ([7]; E. faecalis ATCC51299-VRE): 128 mg/L | MBC [7, 23]: 236.94 µM | MBC [9]: 128 mg/L | MBC ([9]; value in brackets): 236.94 µM | MBC [11]: 4 mg/L | MBC ([11]; value in brackets): 7.40 µM | MBC [12]: 4 mg/L | MBC ([12]; value in brackets): 7.40 µM | IC50 [13]: 3.9 µM

MIC [1]: > 128 mg/L | MIC ([1]; value in brackets): > 279.40 µM | MIC ([2]; S.aureus ATCC12598-MSSA): 8 mg/L | MIC [2, 22]: 17.46 µM | MIC [3]: > 128 mg/L | MIC ([3]; value in brackets): > 279.40 µM | MIC [5]: 4 mg/L | MIC ([5]; value in brackets): 8.73 µM | MIC [6]: > 128 mg/L | MIC ([6]; value in brackets): > 279.40 µM | MIC ([7]; E. faecalis ATCC51299-VRE): 32 mg/L | MIC [7, 23]: 69.85 µM | MIC [8]: > 128 mg/L | MIC ([8]; value in brackets): > 279.40 µM | MIC [9]: 32 mg/L | MIC ([9]; value in brackets): 69.85 µM | MIC [10]: 64 mg/L | MIC [11]: 4 mg/L | MIC ([11]; value in brackets): 8.73 µM | MIC [12]: 4 mg/L | MIC ([12]; value in brackets): 8.73 µM
SMILES: C[n+]1ccc(/C=C/c2ccc(-c3cc(Cl)ccc3Cl)o2)cc1.F[P-](F)(F)(F)(F)F [PB6]
bactericidal/bacteriostatic activity [4]: strain-dependent bactericidal/bacteriostatic activity | IC50 [13]: 6.79 µM and 6.8 µM

MIC [1]: 64 mg/L | MIC ([1]; value in brackets): 138.01 µM | MIC [2, 15]: 2 mg/L and 4.31 μM | MIC [2, 16]: 4 mg/L and 8.63 μM | MIC [2, 17]: 8.63 μM and 4 mg/L | MIC [2, 18]: 4 mg/L and 8.63 μM | MIC [2, 19]: 8 mg/L and 17.25 μM | MIC [2, 20]: 8 mg/L and 17.25 μM | MIC [2, 21]: 32 mg/L and 69.00 μM | MIC ([2]; S.aureus ATCC12598-MSSA): 8 mg/L | MIC [2, 22]: 17.25 µM | MIC [3]: 128 mg/L | MIC ([3]; value in brackets): 276.02 µM | MIC [5]: 16 mg/L | MIC ([5]; value in brackets): 34.50 µM | MIC [14]: ≤ 16 mg/L | MIC [6]: 32 mg/L | MIC ([6]; value in brackets): 69.00 µM | MIC ([7]; E. faecalis ATCC51299-VRE): 8 mg/L | MIC [7, 23]: 17.25 µM | MIC [7, 24]: 8 mg/L and 17.25 μM | MIC [7, 25]: 8 mg/L and 17.25 μM | MIC [7, 26]: 8 mg/L and 17.25 μM | MIC [7, 27]: 8 mg/L and 17.25 μM | MIC [7, 28]: 8 mg/L and 17.25 μM | MIC [7, 29]: 16 mg/L and 34.50 μM | MIC [7, 30]: 32 mg/L and 69.00 μM | MIC [8]: > 128 mg/L | MIC ([8]; value in brackets): > 276.02 µM | MIC [9]: 8 mg/L | MIC ([9]; value in brackets): 17.25 µM | MIC [10]: 32 mg/L | MIC ([10]; value in brackets): 69.00 µM | MIC [11]: 2 mg/L | MIC ([11]; value in brackets): 4.31 µM | MIC [12]: 4 mg/L | MIC ([12]; value in brackets): 8.63 µM
SMILES: CC[n+]1ccc2c(c1)CCCC2=Cc1ccc(-c2ccc(Cl)cc2)o1.[I-] [PB7]
MBC ([2]; S.aureus ATCC12598-MSSA): 8 mg/L | MBC [2, 22]: 17.25 µM | MBC [5]: 16 mg/L | MBC ([5]; value in brackets): 34.50 µM | MBC ([7]; E. faecalis ATCC51299-VRE): 128 mg/L | MBC [7, 23]: 276.02 µM | MBC [9]: 128 mg/L | MBC ([9]; value in brackets): 276.02 µM | MBC [11]: 32 mg/L | MBC ([11]; value in brackets): 69.00 µM | MBC [12]: 4 mg/L | MBC ([12]; value in brackets): 8.63 µM | IC50 [13]: 1.36 µM
